Assay [1] has as its system HCC827 ER #15 cell line. The assay can be described thus: Confirmation of erlotinib resistance, cell number by CCK-8. Type of assay: cell-based, human. The note with it: HCC827 ER #15 vs HCC827; various concentrations, 120 hours; FIG. 3. How it is done:
HCC827 human lung cancer cell line was in vitro treated with an EGFR antagonist erlotinib for a given period to establish HCC827 ER(HCC827 erlotinib-resistant) cell line. More specifically, HCC827 human lung cancer cell line (CRL-2868, ATCC) was in vitro treated with an EGFR antagonist erlotinib (Roche) in an amount of 5 nM to 10 nM for 5 months or more, to construct Erlotinib resistant cell (ER cell) clone.

Assay [2] concerns HCC827 ER #15. The assay can be described thus: Combined use of erlotinib and antibodies in erlotinib resistant cell line, cell number by CCK-8. Type of assay: cell-based, human. Here is the method: In a 96 well plate, diluted HCC827 ER #15 was seeded at 5000 cells/well in a […] medium (GIBCO) containing 10% FBS, and then, incubated at 37° C. overnight. On the next day, the medium was replaced with a RPMI1640 medium containing 1% FBS (GIBCO), and then, the antibody was serially diluted from 100 ug/ml, and the cells were treated therewith at 100 ul. For co-administration, the cells were treated with 10 nM or 100 nM erlotinib, together with the antibody. After 5 days, the number of cells was measured using a CCK-8 reagent (Dojindo laboratory).

For assay [3], the target named is c-Met (Homo sapiens, UniProt P08581). The assay can be described thus: Specificity of expressed scFv of huAbF46. Type of assay: binding. As to conditions: expressed scFv product. The text has this: For use in constructing an scFv of the huAbF46 antibody from the heavy and light chain variable regions of the huAbF46 antibody, a gene was designed to have the structure of “VH-linker-VL” for each of the heavy and the light chain variable region, with the linker having the amino acid sequence “[…]” (SEQ ID NO: 54). A polynucleotide sequence (SEQ ID NO: 55) encoding the designed scFv of huAbF46 was synthesized in Bioneer and an expression vector for the polynucleotide had the nucleotide sequence of SEQ ID NO: 56.
c-Met, sequence (P08581 25-1390): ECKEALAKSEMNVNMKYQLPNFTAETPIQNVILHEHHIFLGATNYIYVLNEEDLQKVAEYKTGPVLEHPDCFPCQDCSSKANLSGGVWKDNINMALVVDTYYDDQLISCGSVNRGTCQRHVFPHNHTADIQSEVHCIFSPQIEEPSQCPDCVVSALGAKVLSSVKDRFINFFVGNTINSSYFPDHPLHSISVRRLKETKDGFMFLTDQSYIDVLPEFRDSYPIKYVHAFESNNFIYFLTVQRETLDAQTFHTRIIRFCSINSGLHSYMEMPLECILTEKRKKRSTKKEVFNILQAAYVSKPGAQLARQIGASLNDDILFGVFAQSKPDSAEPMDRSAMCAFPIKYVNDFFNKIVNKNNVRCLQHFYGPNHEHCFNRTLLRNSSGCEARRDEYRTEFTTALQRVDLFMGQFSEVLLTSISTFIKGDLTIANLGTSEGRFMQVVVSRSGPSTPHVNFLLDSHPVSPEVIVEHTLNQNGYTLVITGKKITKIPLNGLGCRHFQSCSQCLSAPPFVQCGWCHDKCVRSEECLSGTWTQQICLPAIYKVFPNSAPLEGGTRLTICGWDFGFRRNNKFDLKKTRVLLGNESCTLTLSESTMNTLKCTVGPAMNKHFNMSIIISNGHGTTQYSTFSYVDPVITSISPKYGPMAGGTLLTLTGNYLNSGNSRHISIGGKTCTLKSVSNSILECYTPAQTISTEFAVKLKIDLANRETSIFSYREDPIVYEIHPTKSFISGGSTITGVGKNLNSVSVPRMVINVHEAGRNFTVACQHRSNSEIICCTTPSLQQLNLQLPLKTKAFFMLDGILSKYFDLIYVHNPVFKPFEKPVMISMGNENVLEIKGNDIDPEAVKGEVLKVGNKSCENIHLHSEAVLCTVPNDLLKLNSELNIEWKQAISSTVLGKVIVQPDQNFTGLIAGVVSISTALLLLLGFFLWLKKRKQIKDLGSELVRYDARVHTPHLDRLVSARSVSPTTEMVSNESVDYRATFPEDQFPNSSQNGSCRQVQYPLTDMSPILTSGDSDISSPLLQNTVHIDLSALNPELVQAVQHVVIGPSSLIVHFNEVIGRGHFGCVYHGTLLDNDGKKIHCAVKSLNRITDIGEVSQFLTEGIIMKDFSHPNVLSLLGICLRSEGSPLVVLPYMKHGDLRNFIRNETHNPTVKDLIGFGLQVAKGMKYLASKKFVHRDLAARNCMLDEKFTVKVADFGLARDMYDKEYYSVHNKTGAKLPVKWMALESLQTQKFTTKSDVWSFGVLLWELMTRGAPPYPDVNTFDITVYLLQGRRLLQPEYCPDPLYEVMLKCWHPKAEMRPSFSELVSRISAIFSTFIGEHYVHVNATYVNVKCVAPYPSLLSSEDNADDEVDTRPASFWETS

As for `C#Cc1cccc(Nc2ncnc3cc(OCCOC)c(OCCOC)cc23)c1` [erlotinib], the “resistance of cell line to EGFR antagonist” value in assay [1] is recorded as “resistance occurred”.

Regarding Rituximab [reference compound], the “synergistic effect of co-administration with erlotinib” value in assay [2] (HCC827 ER #15, antibody dilution series with 10 nM or 100 nM erlotinib, 5 days, FIGS. 4a-4d) is given as “synergistic effect was not observed”. For the same molecule, the “synergistic effects on cell viability, co-administration with erlotinib at fixed concentrations” value in assay [2] (HCC827 ER#15, antibodies 0.14 μg/ml, erlotinib 10 nM, FIG. 5) is “synergistic effects were not observed”.

B1: scFv of huAbF46: VH-linker-VL single-chain Fv of the huAbF46 antibody (polynucleotide SEQ ID NO: 55) (protein)
scFv: EVQLVESGGGLVQPGGSLRLSCAASGFTFTDYYMSWVRQAPGKGLEWLGFIRNKANGYTTEYSASVKGRFTISRDNSKNTLYLQMNSLRAEDTAVYYCARDNWFAYWGQGTLVTVSSGLGGLGGGGSGGGGSGGSSGVGSDIQMTQSPSSLSASVGDRVTITCKSSQSLLASGNQNNYLAWHQQKPGKAPKMLIIWASTRVSGVPSRFSGSGSGTDFTLTISSLQPEDFATYYCQQSYSAPLTFGQGTKVEIKR
Take B1: the “specificity to c-Met” value in assay [3] is listed as “exhibit specificity to c-Met”.

These data come from US9572878B2, “Method of combination therapy using an EGFR antagonist and anti-c-Met antibody” (SAMSUNG ELECTRONICS CO., LTD., priority 2013, dated 2017).
